The numbers were not newly measured in US7087617B2, “Substituted pyrimidine derivatives” (Pfizer Inc., priority 2003, dated 2006), which cites them from elsewhere.

Structures are written as SMILES.

For the data set the following is noted: for effect on the "anxiogenic" effects / actions of CRF in the conflict test: rats, CRF-induced effects.

For `CNC(=O)c1cc2c(cn1)[nH]c1ccccc12` [FG 7142], the “effect on the "anxiogenic" effects / actions of CRF in the conflict test” value is given as “enhanced the actions of CRF”. With `CCOC(=O)c1ncn2c1CN(C)C(=O)c1cc(F)ccc1-2` [Ro 15-1788], the “effect on the "anxiogenic" effects / actions of CRF in the conflict test” value is recorded as “reversed the effects of CRF in a dose-dependent manner”. For the same compound, the “behavioral activity alone in the operant conflict test” value (compound alone, without CRF) is on record as “without behavioral activity alone”.
